# US6642250B2, “1,8-naphthyridin-2(1H)-one derivatives” (Grelan Pharmaceutical Co., Ltd., priority 1999, dated 2003)
# pIC50: −log10 of the molar value.
# Experiments:
# Type in all cases: biochemical
# [1] = test system: PDE I; experiment: PDE inhibition, type I PDE (cGMP substrate, calmodulin/CaCl2 added); details: PDE I from porcine hearts, cGMP 1 μM; read-out: Inhibition of PDE Isoenzymes (IC50) I
# Protocol: (§1) The assays for PDE activity were conducted according to Nicholson et al. method (Br. J. Pharmacol., 97, 889 (1989)).
# (§2) Among PDE isozymes, type I, II, III and IV PDEs as used herein were separated from porcine hearts by using an anion exchange chromatography. Type V PDE was also separated from porcine aortae with an anion exchange chromatography and used herein.
# (§3) Each PDE isozyme was admixed with ethylene glycol (EG) to adjust the final EG concentration to 30%, then stored at −20° C. and diluted when used. The enzymatic activity for PDE I and V was measured using cGMP as a substrate while that for POE II, III and IV was measured using cAMP.
# (§4) [^3H]-cAMP (962 GBq/mmol; Amersham, 25 μl (100,000 cpm)) or [^3H]-cGMP (962 GBq/mmol; Amersham, 25 μl (100,000 cpm)) was added together with each PDE isozyme (25 μl) to an incubation buffer solution with the composition given below to adjust the total volume to 250 μl. Each test compound was dissolved in DMSO to adjust the final concentration to 1% (2.5 μl/tube).
# (§5) Incubation buffer solution (pH7.5):
# (§6) Tris-HCl (50 mM), magnesium chloride (6 mM), dithiothreitol
# (§7) (2.5 mM), 5-nucleotidase (4 μg/ml), bovine serum albumin
# (§8) (0.23 mg/ml), and cAMP (1 μM) [or cGMP (1 μM)]
# (§9) A mixture of the aforementioned test compound solution and the buffer solution was incubated at 30° C. for 20 minutes. The reaction was quenched by admixing with 1 ml of anion exchange resin slurry (AG1-X8, 200-400 meshes, chloride form; Bio-Rad) to absorb unreacted substrates.
# (§10) After the reaction stopped, the mixture was centrifuged at 200×g for 10 minutes, and the resulting supernatant was collected with vials in 250 μl aliquots. To each vial was added 5 ml of ACS-II (scintillator, Amersham). The radioactivity was measured with a liquid scintillator counter for [^3H]-adenosine or [^3H]-guanosine and set as the PDE activity. The measurements were conducted under conditions wherein the enzymatic activity was elevated by adding calmodulin (20 U/ml; Amersham) and calcium chloride (0.1 mM) for PDE-I and cGMP (1 μM) for PDE II, respectively.
# (§11) The % inhibition was calculated for test compounds, and IC50 (the concentration of each test compound required for 50% inhibition) was obtained by Probit method. The aforementioned rolipram ((−)-isomer, optical purity: 91% e.e.) known as the PDE IV inhibitor in the prior art was used for the reference compound in this assay.
# [2] = molecular target: T1, PDE II (Sus scrofa, UniProt F1SUV3); experiment: PDE inhibition, type II PDE (cAMP substrate, cGMP added); details: PDE II from porcine hearts, cAMP 1 μM; read-out: Inhibition of PDE Isoenzymes (IC50) II
# T1 sequence (F1SUV3 1-945): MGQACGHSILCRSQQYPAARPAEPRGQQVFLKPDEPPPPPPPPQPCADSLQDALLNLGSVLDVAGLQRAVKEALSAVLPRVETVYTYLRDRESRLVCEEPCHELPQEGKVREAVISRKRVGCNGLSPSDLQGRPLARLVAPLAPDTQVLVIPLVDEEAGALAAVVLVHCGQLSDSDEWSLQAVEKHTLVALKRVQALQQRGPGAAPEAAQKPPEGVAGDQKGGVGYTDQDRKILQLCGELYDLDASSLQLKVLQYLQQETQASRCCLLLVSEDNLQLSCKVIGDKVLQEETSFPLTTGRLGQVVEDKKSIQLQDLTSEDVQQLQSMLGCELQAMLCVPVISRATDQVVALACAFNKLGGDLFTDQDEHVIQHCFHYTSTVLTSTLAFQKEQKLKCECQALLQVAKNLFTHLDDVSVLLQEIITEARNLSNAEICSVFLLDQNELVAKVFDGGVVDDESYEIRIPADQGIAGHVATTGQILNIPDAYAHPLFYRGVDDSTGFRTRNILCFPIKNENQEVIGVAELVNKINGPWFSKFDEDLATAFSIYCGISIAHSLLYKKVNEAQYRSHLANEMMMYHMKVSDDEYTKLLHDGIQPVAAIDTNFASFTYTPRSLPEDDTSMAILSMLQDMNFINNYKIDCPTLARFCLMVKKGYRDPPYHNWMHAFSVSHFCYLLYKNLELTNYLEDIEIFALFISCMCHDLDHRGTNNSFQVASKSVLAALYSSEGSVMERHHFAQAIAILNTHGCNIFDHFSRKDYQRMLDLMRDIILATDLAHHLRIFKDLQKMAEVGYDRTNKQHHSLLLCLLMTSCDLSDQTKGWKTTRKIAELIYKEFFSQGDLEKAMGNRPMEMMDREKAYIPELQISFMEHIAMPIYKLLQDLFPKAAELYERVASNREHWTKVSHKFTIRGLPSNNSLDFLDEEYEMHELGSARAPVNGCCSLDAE
# Protocol: as §1, §2, §3, §4, §5, §6, §7, §8, §9, §10, §11
# [3] = test system: T2, PDE IV; experiment: PDE inhibition, type IV PDE (cAMP substrate); details: PDE IV from porcine hearts, cAMP 1 μM; read-out: Inhibition of PDE Isoenzymes (IC50) IV
# T2 construct: other: PDE IV from porcine hearts, cAMP 1 μM
# Protocol: as §1, §2, §3, §4, §5, §6, §7, §8, §9, §10, §11
# Further, for a comparison with compounds as disclosed in JP, A, 63-159382 (1988), the PDE-inhibiting activity was also measured for Compounds A and D in Table 1 of JP, A, 63-159382 (1988).
# [4] = molecular target: T3, PDE V (Sus scrofa, UniProt A0A287B475); experiment: PDE inhibition, type V PDE (cGMP substrate); details: PDE V from porcine aortae, cGMP 1 μM; read-out: Inhibition of PDE Isoenzymes (IC50) V
# T3 construct: Type V PDE was also separated from porcine aortae with an anion exchange chromatography and used herein
# Protocol: as §1, §2, §3, §4, §5, §6, §7, §8, §9, §10, §11
pIC50 [1],pIC50 [2],pIC50 [3],pIC50 [4],SMILES
< 4.00,< 4.00,6.96,4.80,"O=c1c(Cc2cccnc2)cc2cccnc2n1-c1cccc([N+](=O)[O-])c1 [Example No. 2, 1-(3-Nitrophenyl)-3-(pyridin-3-ylmethyl)-1,8-naphthyridin-2(1H)-one]"
4.66,< 4.00,7.22,4.89,"O=c1c(CCc2cccnc2)cc2cccnc2n1-c1cccc([N+](=O)[O-])c1 [Example No. 5, 1-(3-Nitrophenyl)-3-[2-(pyridin-3-yl)ethyl]-1,8-naphthyridin-2(1H)-one]"
< 4.00,< 4.00,6.80,4.82,"O=c1c(CCc2ccncc2)cc2cccnc2n1-c1cccc([N+](=O)[O-])c1 [Example No. 6, 1-(3-Nitrophenyl)-3-[2-(pyridin-4-yl)ethyl]-1,8-naphthyridin-2(1H)-one]"
< 4.00,< 4.00,5.89,5.33,"O=c1c(CCCc2cccnc2)cc2cccnc2n1-c1cccc([N+](=O)[O-])c1 [Example No. 7, 1-(3-Nitrophenyl)-3-[3-(pyridin-3-yl)propyl]-1,8-naphthyridin-2(1H)-one]"
< 4.00,4.28,5.82,4.89,"CSc1cccc(-n2c(=O)c(CCCc3ccncc3)cc3cccnc32)c1 [Example No. 10, 1-(3-Methylthiophenyl)-3-[3-(pyridin-4-yl)propyl]-1,8-naphthyridin-2(1H)-one]"
4.08,4.07,5.82,5.29,"O=c1c(CCCCc2cccnc2)cc2cccnc2n1-c1cccc([N+](=O)[O-])c1 [Example No. 14, 1-(3-Nitrophenyl)-3-[4-(pyridin-3-yl)butyl]-1,8-naphthyridin-2(1H)-one]"
4.01,4.20,5.72,5.13,"O=c1c(CCCCCc2cccnc2)cc2cccnc2n1-c1cccc([N+](=O)[O-])c1 [Example No. 16, 1-(3-Nitrophenyl)-3-[5-(pyridin-3-yl)pentyl]-1,8-naphthyridin-2(1H)-one]"
< 4.00,< 4.00,5.92,< 4.00,"O=c1c(CCCc2ccncc2)cc2cccnc2n1-c1cccnc1 [Example No. 23, 1-(Pyridin-3-yl)-3-[3-(pyridin-4-yl)propyl]-1,8-naphthyridin-2(1H)-one]"

SMILES,pIC50 [1],pIC50 [2],pIC50 [3],pIC50 [4]
"COc1ccc(C2CNC(=O)C2)cc1OC1CCCC1 (single isomer, unassigned) [Rolipram, rolipram, reference compound]",< 4.00,< 4.00,5.49 to 6.11,
"O=c1c(CCCc2ccncc2)cc2cccnc2n1-c1cccc([N+](=O)[O-])c1 [Example No. 8, 1-(3-Nitrophenyl)-3-[3-(pyridin-4-yl)propyl]-1,8-naphthyridin-2(1H)-one]",< 4.00,< 4.00,6.36,< 4.00
